From paper PMC8120183, “Cardamonin inhibits the progression of oesophageal cancer by inhibiting the PI3K/AKT signalling pathway” (Journal of Cancer, 2021) come the findings set out here.

Peptide text beside a SMILES is read from it. * marks the point of attachment. Cbz = O=C(OCc1ccccc1)*; CH2F = FC*

Common to all, as to assay type: cell-based, human
Test [1] deals with EC9706 cells. Kind of test: Annexin V-FITC/PI flow cytometry, apoptosis. To be noted: co-incubation with CAR. Here is the method: After the oesophageal cancer cells were treated with different concentrations of CAR for 48 h, the cells were digested with trypsin, washed twice with PBS, and resuspended in 1× loading buffer. The cells were double-stained with 5 µL of annexin V-FITC and 5 μL of PI and then incubated in the dark for 30 min before flow cytometry analysis.

For test [2], the system named is oesophageal cancer cell lines EC9706 and TE10. Kind of test: Colony formation assay. To be noted: MTT and colony formation assays, co-incubation with CAR. Here is the method:
Oesophageal cancer cells were inoculated into 6-well plates at a density of 8×10^2 cells/well and treated with different concentrations of CAR. The cells were continuously cultured for two weeks until colonies visible to the naked eye had formed. Then, the supernatant was discarded, and crystal violet staining solution was added for 10 min. The cells were dried and photographed, and the colony formation rate was calculated.

The test system of test [3] is PI3K/AKT signalling pathway in EC9706 cells. Description: Western blot, PI3K/AKT signalling pathway. To be noted: co-incubation with CAR. Here is the method:
Oesophageal cancer cells were inoculated into a 6-well plate (5×10^5 cells/well). Cells were treated with different concentrations of CAR and then incubated for an additional 48 h. The cells were lysed using radio-immunoprecipitation assay (RIPA) buffer. The protein concentration was determined using a BCA kit. Proteins were separated by 8-12% sodium dodecyl sulfate-polyacrylamide gel electrophoresis (SDS-PAGE) and then transferred to a polyvinylidene fluoride (PVDF) membrane. The membrane was blocked with 5% nonfat milk for 1 h and then incubated with primary antibodies at 4 °C overnight. The membrane was then incubated with secondary antibodies for 1 h at room temperature. Finally, the membrane was imaged using a chemiluminescence imaging analyser. The greyscale value of each target protein band was analysed using the software provided with the analyser.

For test [4], the system named is EC9706 and TE10 oesophageal cancer cells. Description: Hoechst 33258 staining, apoptosis. To be noted: Hoechst 33258 staining and flow cytometry, co-incubation with CAR. Here is the method:
Cells were seeded into 24-well plates (3×10^4 cells/well). The cells were treated with different concentrations of CAR and then incubated for 48 h, followed by fixation with 4% paraformaldehyde for 30 min and one wash with PBS. The cells were stained with Hoechst 33258 (50 ng/ml) for 30 min. Apoptotic cells were observed using a fluorescence microscope (apoptotic cells were characterized by dense chromatin), and five randomly selected fields were used for cell counting.

Test [5] has as its system EC9706 and TE10 cells. Description: Transwell migration assay. To be noted: scratch healing, Transwell migration and invasion assays, co-incubation with CAR. The protocol:
A total of 100 μL of Matrigel was placed in the upper chamber of a Transwell system and incubated at 37 °C for 2 h to form a white membrane visible to the naked eye. Cells were resuspended in serum-free medium and adjusted to a concentration of 3×10^4 cells/well. Medium containing 10% FBS was added into the lower chamber, and CAR was added based on a concentration gradient. Next, the cells were incubated for 48 h and then stained with crystal violet for 10 min. Then, an inverted microscope was used to observe the cells; five fields were randomly selected to observe and count the cells. To assess cell migration, all the above steps were repeated, but Matrigel was not added to the upper chamber.

As to `COC(=O)C[C@H](NC(=O)[C@H](C)NC(=O)[C@@H](NC(=O)OCc1ccccc1)C(C)C)C(=O)CF` [Z-VAD-FMK] (Cbz-Val-Ala-Asp(OMe)-CH2F), the “effect of caspase inhibitor pretreatment on CAR-induced apoptosis” value in test [1] is reported as “could reverse the apoptosis induced by CAR”.

In the case of 740Y-P [reference compound], the “effect of PI3K agonist on antiproliferation effect of CAR” value in test [2] was “could partially reverse the antiproliferation effect of CAR”. For the same compound, in test [3], the “effect of PI3K agonist on CAR inhibition of PI3K/AKT” value is on record as “eliminated the inhibitory effect of CAR on PI3K/AKT in oesophageal cancer cells”. In test [4], the “effect of PI3K agonist on apoptosis-promoting effect of CAR” value was “could partially reverse the apoptosis-promoting effect of CAR on EC9706 and TE10 cells”. The “effect of PI3K agonist on anti-migration and anti-invasion effects of CAR” value in test [5] was “can partially reverse the anti-migration and anti-invasion effects of CAR on oesophageal cancer cells”.
